Results on 16 molecules are retold here after patent publication US10442796B2, “2,3,5-substituted thiophene compound as protein kinase inhibitor” (KOREA INSTITUTE OF SCIENCE AND TECHNOLOGY, priority 2016, dated 2019).

One experiment concerns the target T1, FLT3-ITD Ba/F3 cells (Homo sapiens, UniProt P36888, cells depend on it, form not given).
T1 sequence (P36888 1-993): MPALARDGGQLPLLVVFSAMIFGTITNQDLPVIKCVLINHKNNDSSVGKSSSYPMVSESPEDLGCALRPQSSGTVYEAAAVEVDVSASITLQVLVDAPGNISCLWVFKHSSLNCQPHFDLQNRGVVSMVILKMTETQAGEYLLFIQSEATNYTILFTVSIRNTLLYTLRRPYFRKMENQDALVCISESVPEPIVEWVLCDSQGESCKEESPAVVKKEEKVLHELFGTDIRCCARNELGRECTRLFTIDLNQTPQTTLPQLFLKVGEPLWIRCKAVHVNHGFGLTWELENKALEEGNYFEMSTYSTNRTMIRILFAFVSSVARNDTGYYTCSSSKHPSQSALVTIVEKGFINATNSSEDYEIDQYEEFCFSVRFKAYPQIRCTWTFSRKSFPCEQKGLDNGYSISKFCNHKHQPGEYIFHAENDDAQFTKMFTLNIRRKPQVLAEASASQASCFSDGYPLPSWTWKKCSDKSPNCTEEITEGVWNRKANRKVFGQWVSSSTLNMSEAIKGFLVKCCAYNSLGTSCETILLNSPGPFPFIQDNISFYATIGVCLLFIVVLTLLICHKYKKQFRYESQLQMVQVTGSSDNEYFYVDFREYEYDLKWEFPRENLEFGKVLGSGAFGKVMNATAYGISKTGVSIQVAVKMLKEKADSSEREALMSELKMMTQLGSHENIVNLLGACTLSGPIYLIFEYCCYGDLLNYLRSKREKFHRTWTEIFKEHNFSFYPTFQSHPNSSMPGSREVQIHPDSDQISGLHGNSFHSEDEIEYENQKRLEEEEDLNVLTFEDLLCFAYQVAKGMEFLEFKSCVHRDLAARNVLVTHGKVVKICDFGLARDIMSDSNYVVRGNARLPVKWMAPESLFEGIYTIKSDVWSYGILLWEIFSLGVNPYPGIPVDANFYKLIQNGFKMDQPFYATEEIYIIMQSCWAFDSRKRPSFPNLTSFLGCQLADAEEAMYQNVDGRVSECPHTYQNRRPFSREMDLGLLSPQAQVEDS
Nature of the experiment: Growth inhibitory activity against Ba/F3 cell line. The experiment is classed as cell-based. As to conditions: Ba/F3 expressing FLT3-ITD; 72 hours; cell titer glo; read-out: IC50 (uM) FLT3-ITD. As to the method: (§1) A Ba/F3 cell line expressing an FLT3 mutation gene was cultured in a culture solution including 90% RPMI, 10% FBS, and an antibiotic (Welgene). 100 uL of the Ba/F3 cell line was put into each of 5,000 wells of a TC-treated 96 well plate (SPL), and then 1 uL of a test compound diluted in dimethylsulfoxide (diluted for each 3 paint from a concentration of 1 mM, total 10 concentrations) was each injected thereinto. Thereafter, the resulting cell lines were incubated in a cell culture incubator for 72 hours. 50 uL of a cell titer glo (Promega) solution was added thereto, the resulting mixture was stored at room temperature for 10 minutes, and then the light emission intensity was measured by using a reader (Envision, PerkinElmer). The light emission intensity was shown as a graph for each final concentration of the test compound, and the GI50 value was obtained by using a Prism 5.0 (GraphPad) software.
(In general: Cellular ATP, detected with luciferase, serves as a proxy for viable cell number.)

The target in the next experiment is T2, FLT3-D835Y Ba/F3 cells (Homo sapiens, UniProt P36888, D835Y, cells depend on it).
T2 sequence (P36888 1-993 D835Y): T1 sequence (P36888 1-993) with D835Y
Nature of the experiment: Growth inhibitory activity against Ba/F3 cell line. It counts as cell-based. To be noted: Ba/F3 expressing FLT3-D835Y; 72 hours; cell titer glo; read-out: IC50 (uM) FLT3-D835Y. The protocol: as §1

Structures are written as SMILES. Positions count from the first letter of the chain named. Counter-ions that a name gives are not always drawn.

Consider `CC(=O)N1CCC(n2cc(C#Cc3cc(NC(N)=O)c(C(=O)N[C@H]4CCCCNC4)s3)cn2)CC1` [Example 49], for which the GI50 on FLT3-ITD Ba/F3 cells was 0.017 µM; on FLT3-D835Y Ba/F3 cells it was 0.437 µM.
The like results for `NC(=O)Nc1cc(C#Cc2ccnc(F)c2)sc1C(=O)N[C@H]1CCCNC1` [Example 21, (S)-5-((2-fluoropyridin-4-yl)ethynyl)-N-(piperidin-3-yl)-3-ureidothiophene-2-carboxamide] were, in that order, under 0.005 µM and 0.041 µM.
On the same counts, the results for `NC(=O)Nc1cc(C#Cc2cccc([N+](=O)[O-])c2)sc1C(=O)N[C@H]1CCCNC1` [Example 5, (S)-5-((3-nitrophenyl)ethynyl)-N-(piperidin-3-yl)-3-ureidothiophene-2-carboxamide] are under 0.005 µM and 0.039 µM.
The like results for `NC(=O)Nc1cc(C#Cc2ccncc2)sc1C(=O)N[C@H]1CCCNC1` [Example 4, (S)—N-(piperidin-3-yl)-5-(pyridin-4-ylethynyl)-3-ureidothiophene-2-carboxamide] were, in that order, 0.016 µM and 0.408 µM.
Take `NC(=O)Nc1cc(CCc2cccc(F)c2)sc1C(=O)N[C@H]1CCCCNC1` [Example 54, (S)—N-(azepan-3-yl)-5-(3-fluorophenethyl)-3-ureidothiophene-2-carboxamide]: the GI50 at FLT3-ITD Ba/F3 cells is 1.93 µM; at FLT3-D835Y Ba/F3 cells it was 11.5 µM.
As for `NC(=O)Nc1cc(C#Cc2ccccc2)sc1C(=O)N[C@H]1CCCNC1` [Example 2, (S)-5-(phenylethynyl)-N-(piperidin-3-yl)-3-ureidothiophene-2-carboxamide], the GI50 on FLT3-ITD Ba/F3 cells is under 0.001 µM; on FLT3-D835Y Ba/F3 cells, 0.002 µM.
On to `NC(=O)Nc1cc(C#Cc2ccc([N+](=O)[O-])cc2)sc1C(=O)N[C@H]1CCCNC1` [Example 7, (S)-5-((4-nitrophenyl)ethynyl)-N-(piperidin-3-yl)-3-ureidothiophene-2-carboxamide], for which the GI50 is under 0.005 µM at FLT3-ITD Ba/F3 cells and 0.07 µM on FLT3-D835Y Ba/F3 cells.
Consider `Cn1cc(CCc2cc(NC(N)=O)c(C(=O)N[C@H]3CCCCNC3)s2)cn1` [Example 52, (S)—N-(azepan-3-yl)-5-(2-(1-methyl-1H-pyrazol-4-yl)ethyl)-3-ureidothiophene-2-carboxamide trifluoroacetate], for which the GI50 at FLT3-ITD Ba/F3 cells is 6.28 µM; at FLT3-D835Y Ba/F3 cells, over 33 µM.
On the same counts, the results for `NC(=O)Nc1cc(C#Cc2ccc(C(F)(F)F)nc2)sc1C(=O)N[C@H]1CCCNC1` [Example 17, (S)—N-(piperidin-3-yl)-5-((6-(trifluoromethyl)pyridin-3-yl)ethynyl)-3-ureidothiophene-2-carboxamide] are under 0.005 µM and 0.064 µM.
On to `NC(=O)Nc1cc(C#Cc2ccccn2)sc1C(=O)N[C@H]1CCCNC1` [Example 10, (S)—N-(piperidin-3-yl)-5-(pyridin-2-ylethynyl)-3-ureidothiophene-2-carboxamide], for which the GI50 on FLT3-ITD Ba/F3 cells was 0.005 µM; at FLT3-D835Y Ba/F3 cells it was 0.041 µM.
`NC(=O)Nc1cc(C#Cc2cccc(F)c2)sc1C(=O)N[C@H]1CCCNC1` [Example 22, (S)-5-((3-fluorophenyl)ethynyl)-N-(piperidin-3-yl)-3-ureidothiophene-2-carboxamide]: the GI50 on FLT3-ITD Ba/F3 cells turned out to be 0.007 µM; at FLT3-D835Y Ba/F3 cells it was 0.052 µM.
Turning to `NC(=O)Nc1cc(C#Cc2n[nH]c3ccccc23)sc1C(=O)N[C@H]1CCCNC1` [Example 12, (S)-5-((1H-indazol-3-yl)ethynyl)-N-(piperidin-3-yl)-3-ureidothiophene-2-carboxamide], the figures for the GI50 at FLT3-ITD Ba/F3 cells and at FLT3-D835Y Ba/F3 cells were 0.037 µM and 0.289 µM, respectively.
As for `NC(=O)Nc1cc(C#Cc2ccc(F)nc2)sc1C(=O)N[C@H]1CCCNC1` [Example 13, (S)-5-((6-fluoropyridin-3-yl)ethynyl)-N-(piperidin-3-yl)-3-ureidothiophene-2-carboxamide], the GI50 was found to be 0.002 µM at FLT3-ITD Ba/F3 cells and 0.014 µM at FLT3-D835Y Ba/F3 cells.
For the molecule `NC(=O)Nc1cc(C#Cc2cnn(C3CCOCC3)c2)sc1C(=O)N[C@H]1CCCCNC1` [Example 46, (S)—N-(azepan-3-yl)-5-((1-(tetrahydro-2H-pyran-4-yl)-1H-pyrazol-4-yl)ethynyl)-3-ureidothiophene-2-carboxamide trifluoroacetate], the results for the GI50 at FLT3-ITD Ba/F3 cells and at FLT3-D835Y Ba/F3 cells were 0.003 µM and 0.042 µM, respectively.
For the molecule `NC(=O)Nc1cc(C#Cc2cccnc2)sc1C(=O)N[C@H]1CCCNC1` [Example 3, (S)—N-(piperidin-3-yl)-5-(pyridin-3-ylethynyl)-3-ureidothiophene-2-carboxamide], the GI50 on FLT3-ITD Ba/F3 cells is under 0.005 µM; on FLT3-D835Y Ba/F3 cells it was 0.05 µM.
Regarding `NC(=O)Nc1cc(C#Cc2ccc(F)c(F)c2)sc1C(=O)N[C@H]1CCCNC1` [Example 14, (S)-5-((3,4-difluorophenyl)ethynyl)-N-(piperidin-3-yl)-3-ureidothiophene-2-carboxamide], the results for the GI50 on FLT3-ITD Ba/F3 cells and on FLT3-D835Y Ba/F3 cells were under 0.001 µM and 0.005 µM, respectively.
